Assay results as given in patent publication US20260102359A1, “COMBINATION TREATMENT OF DERMAL AND TRANSDERMAL FIBROTIC DISEASES, DISORDERS AND ASSOCIATED PAIN AND INFLAMMATION” (ERESINA, LLC, priority 2022, published 2026).
Where a name gives a salt, the structure may show the parent alone.

Tested on: hDMFa myofibroblast cells

| SMILES | Compound Myofibroblast Cytotoxicity Activity |
| --- | --- |
| O=C(Nc1ccc([N+](=O)[O-])cc1Cl)c1cc(Cl)ccc1O [Cmpd 708, Niclosamide] | ++ |
| O=C(N/N=C/c1ccc([N+](=O)[O-])o1)c1ccc(O)cc1 [Cmpd 711, Nifuroxazide] | ++ |
| Cc1cn(-c2cc(NC(=O)c3ccc(C)c(Nc4nccc(-c5cccnc5)n4)c3)cc(C(F)(F)F)c2)cn1 [Cmpd 712, Nilotinib monohydrochloride monohydrate] | +++ |
| CC1(C)NC(=O)N(c2ccc([N+](=O)[O-])c(C(F)(F)F)c2)C1=O [Cmpd 714, Nilutamide] | ++++ |
| COC(=O)C1=C(C#N)NC(C)=C(C(=O)OC(C)C)C1c1cccc([N+](=O)[O-])c1 (stereo not shown) [Cmpd 715, Nilvadipine] | +++ |
| COC(=O)c1ccc2c(c1)NC(=O)/C2=C(\Nc1ccc(N(C)C(=O)CN2CCN(C)CC2)cc1)c1ccccc1 [Cmpd 716, Nintedanib (BIBF 1120)] | ++++ |
| COC(=O)C1=C(C)NC(C)=C(C(=O)OCC(C)C)C1c1ccccc1[N+](=O)[O-] (stereo not shown) [Cmpd 717, Nisoldipine] | +++ |
| CC(=O)Oc1ccccc1C(=O)Nc1ncc([N+](=O)[O-])s1 [Cmpd 718, Nitazoxanide] | +++ |
| CCOC(=O)C1=C(C)NC(C)=C(C(=O)OC)C1c1cccc([N+](=O)[O-])c1 (stereo not shown) [Cmpd 719, Nitrendipine] | +++ |
| O=C1CN(/N=C/c2ccc([N+](=O)[O-])o2)C(=O)N1 [Cmpd 720, Nitrofurantoin] | ++++ |
| CC(Cc1ccc(O)c(O)c1)C(C)Cc1ccc(O)c(O)c1 (stereo not shown) [Cmpd 722, Nordihydroguaiaretic acid] | +++ |
| CNCCC=C1c2ccccc2CCc2ccccc21 [Cmpd 723, Nortriptyline (hydrochloride)] | ++ |
| CO[C@@H]1[C@@H](OC(N)=O)[C@@H](O)[C@H](Oc2ccc3c(O)c(NC(=O)c4ccc(O)c(CC=C(C)C)c4)c(=O)oc3c2C)OC1(C)C [Cmpd 724, Novobiocin Sodium] | ++++ |
| CCCCCCCC(=O)O [Cmpd 729, Octanoic acid] | ++ |
| CCCCCCCC/C=C\CCCCCCCC(=O)O [Cmpd 733, Oleic Acid] | +++ |
| C=CC(=O)Nc1cccc(Oc2nc(Nc3ccc(N4CCN(C)CC4)cc3)nc3ccsc23)c1 [Cmpd 735, Olmutinib (HM61713, BI1482694)] | ++++ |
| COc1ccc2[n-]c([S+]([O-])Cc3ncc(C)c(OC)c3C)nc2c1.[Na+] (stereo not shown) [Cmpd 737, Omeprazole Sodium] | ++ |
| CCCCCCCCOc1ccccc1C(=O)Nc1ccc(C(=O)OCC[N+](C)(CC)CC)cc1 [Cmpd 741, Otilonium Bromide] | +++++ |
| Cc1ccccc1C(=O)O [Cmpd 742, o-Toluic acid] | ++ |
| CN(C(=O)CN(CCO)CC(=O)N(C)C(C)(C)Cc1ccccc1)C(C)(C)Cc1ccccc1 [Cmpd 745, Oxethazaine] | +++++ |
| CCN(CC)CC#CCOC(=O)C(O)(c1ccccc1)C1CCCCC1 (stereo not shown) [Cmpd 747, Oxybutynin] | ++ |
| C1=N/C2=N/c3ccc(OCCN4CCCC4)c(c3)COC/C=C/COCc3cccc(c3)C(=C1)N2 [Cmpd 751, Pacritinib (SB1518)] | +++ |
| CC(=O)c1c(C)c2cnc(Nc3ccc(N4CCNCC4)cn3)nc2n(C2CCCC2)c1=O.O=S(=O)(O)CCO [Cmpd 753, Palbociclib (PD0332991) Isethionate] | +++++ |
| CCCCCCCCCCCCCCCC(=O)OC [Cmpd 754] | +++ |
| NCCC(O)(P(=O)([O-])O)P(=O)([O-])O.[Na+].[Na+] [Cmpd 756, Pamidronate Disodium] | +++ |
